Source: ChEMBL document CHEMBL1201861, “Genomics of Drug Sensitity in Cancer screening data, Wellcome Trust Sanger Institute”

Assays:
GCT = assay: cells; format: functional, cell-based; details: Homo sapiens;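 also: GCT cell line proliferation inhibition, read out with a cell viability assay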
Description: SANGER: Inhibition of human GCT cell growth in a cell viability assay.

BHY = assay: cells; format: functional, cell-based; details: Homo sapiens;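 also: cell growth inhibition read out by a viability assay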
Description: SANGER: Inhibition of human BHY cell growth in a cell viability assay.

TALL-1 = assay: cells; format: functional, cell-based; details: Homo sapiens;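 also: growth inhibition of cultured human TALL-1 cells, read out by a cell viability assay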
Description: SANGER: Inhibition of human TALL-1 cell growth in a cell viability assay.

SK-MEL3 = assay: cells; format: functional, cell-based, SK-MEL-3; details: Homo sapiens;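 also: growth inhibition of human SK-MEL-3 cells, read out with a cell viability assay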
Description: SANGER: Inhibition of human SK-MEL-3 cell growth in a cell viability assay.

NY = assay: cells; format: functional, cell-based; details: Homo sapiens
Description: SANGER: Inhibition of human NY cell growth in a cell viability assay.

SR = assay: cells; format: functional, cell-based; details: Homo sapiens
Description: SANGER: Inhibition of human SR cell growth in a cell viability assay.

CAL-27 = assay: cells; format: functional, cell-based; details: Homo sapiens;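 also: Viability-based readout, IC50 reflecting inhibition of CAL-27 cell growth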
Description: SANGER: Inhibition of human CAL-27 cell growth in a cell viability assay.

MDA-MB-361 = assay: cells; format: functional, cell-based; details: Homo sapiens
AU565 = assay: cells; format: functional, cell-based; details: Homo sapiens;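 also: cell viability assay measuring growth inhibition of human AU565 cells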
Description: SANGER: Inhibition of human AU565 cell growth in a cell viability assay.

NCI-H2170 = assay: cells; format: functional, cell-based; details: Homo sapiens;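 also: cell viability assay measuring growth inhibition of human NCI-H2170 cancer cells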
Description: SANGER: Inhibition of human NCI-H2170 cell growth in a cell viability assay.

MEL-JUSO = assay: cells; format: functional, cell-based; details: Homo sapiens;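 also: growth inhibition of human MEL-JUSO cells, read out with a cell viability assay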
Description: SANGER: Inhibition of human MEL-JUSO cell growth in a cell viability assay.

PF-382 = assay: cells; format: functional, cell-based; details: Homo sapiens
Description: SANGER: Inhibition of human PF-382 cell growth in a cell viability assay.

AN3-CA = assay: cells; format: functional, cell-based; details: Homo sapiens;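 also: growth inhibition of human AN3-CA cells measured by a cell viability assay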
Description: SANGER: Inhibition of human AN3-CA cell growth in a cell viability assay.

HT-3 = assay: cells; format: functional, cell-based; details: Homo sapiens;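 also: growth inhibition measured with a cell viability readout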
Description: SANGER: Inhibition of human HT-3 cell growth in a cell viability assay.

OVCAR-8 = assay: cells; format: functional, cell-based; details: Homo sapiens;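 also: growth inhibition of human OVCAR-8 cells, read out by a cell viability assay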
Description: SANGER: Inhibition of human OVCAR-8 cell growth in a cell viability assay.

ECC4 = assay: cells; format: functional, cell-based; details: Homo sapiens;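 also: growth inhibition of ECC4 cells, read out with a cell viability assay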
Description: SANGER: Inhibition of human ECC4 cell growth in a cell viability assay.

SNU-387 = assay: cells; format: functional, cell-based; details: Homo sapiens
Description: SANGER: Inhibition of human SNU-387 cell growth in a cell viability assay.

OPM-2 = assay: cells; format: functional, cell-based; details: Homo sapiens;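 also: growth of OPM-2 cells measured with a viability assay, IC50 for suppression of proliferation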
Description: SANGER: Inhibition of human OPM-2 cell growth in a cell viability assay.

HSC-4 = assay: cells; format: functional, cell-based; details: Homo sapiens;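 also: growth inhibition of human HSC-4 cells, read out with a cell viability assay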
Description: SANGER: Inhibition of human HSC-4 cell growth in a cell viability assay.

HCC1954 = assay: cells; format: functional, cell-based; details: Homo sapiens;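 also: growth inhibition of human HCC1954 cells, read out with a cell viability assay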
Description: SANGER: Inhibition of human HCC1954 cell growth in a cell viability assay.

NCI-H2171 = assay: cells; format: functional, cell-based; details: Homo sapiens;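 also: growth inhibition of human NCI-H2171 cells, read out by a cell viability assay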
Description: SANGER: Inhibition of human NCI-H2171 cell growth in a cell viability assay.

SIG-M5 = assay: cells; format: functional, cell-based; details: Homo sapiens;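 also: cell viability assay read-out, measuring how strongly growth of cultured human SIG-M5 cells is inhibited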
Description: SANGER: Inhibition of human SIG-M5 cell growth in a cell viability assay.

COR-L23 = assay: cells; format: functional, cell-based; details: Homo sapiens;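 also: cell viability assay measuring how strongly compounds suppress growth of COR-L23 cells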
Description: SANGER: Inhibition of human COR-L23 cell growth in a cell viability assay.

LoVo = assay: cells; format: functional, cell-based; details: Homo sapiens;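 also: growth inhibition of human LoVo cells, read out with a cell viability assay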
Description: SANGER: Inhibition of human LoVo cell growth in a cell viability assay.

GMS-10 = assay: cells; format: functional, cell-based; details: Homo sapiens;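 also: growth inhibition of GMS-10 cells, read out as cell viability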
Description: SANGER: Inhibition of human GMS-10 cell growth in a cell viability assay.

NUGC-3 = assay: cells; format: functional, cell-based; details: Homo sapiens;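 also: growth inhibition of human NUGC-3 cells, read out with a cell viability assay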
Description: SANGER: Inhibition of human NUGC-3 cell growth in a cell viability assay.

MFE-280 = assay: cells; format: functional, cell-based; details: Homo sapiens;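 also: growth inhibition of MFE-280 cells, determined with a cell viability readout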
Description: SANGER: Inhibition of human MFE-280 cell growth in a cell viability assay.

MKN-7 = assay: cells; format: functional, cell-based; details: Homo sapiens;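 also: growth inhibition of MKN-7 cells, read out with a cell viability assay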
Description: SANGER: Inhibition of human MKN7 cell growth in a cell viability assay.

BL-41 = assay: cells; format: functional, cell-based; details: Homo sapiens;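 also: growth inhibition of human BL-41 cells, read out with a cell viability assay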
Description: SANGER: Inhibition of human BL-41 cell growth in a cell viability assay.

KYSE-140 = assay: cells; format: functional, cell-based; details: Homo sapiens;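 also: cell viability assay measuring growth inhibition in human KYSE-140 cells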
Description: SANGER: Inhibition of human KYSE-140 cell growth in a cell viability assay.

EVSA-T = assay: cells; format: functional, cell-based; details: Homo sapiens;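 also: growth inhibition of EVSA-T cells, read out with a cell viability assay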
Description: SANGER: Inhibition of human EVSA-T cell growth in a cell viability assay.

T84 = assay: cells; format: functional, cell-based; details: Homo sapiens;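 also: growth inhibition measured with a cell viability readout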
Description: SANGER: Inhibition of human T84 cell growth in a cell viability assay.

HEC-1 = assay: cells; format: functional, cell-based; details: Homo sapiens;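 also: growth inhibition of the cell line, read out with a cell viability assay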
Description: SANGER: Inhibition of human HEC-1 cell growth in a cell viability assay.

KYSE-270 = assay: cells; format: functional, cell-based; details: Homo sapiens;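 also: cell growth inhibition measured with a viability assay in the human KYSE-270 line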
Description: SANGER: Inhibition of human KYSE-270 cell growth in a cell viability assay.

KP-N-YN = assay: cells; format: functional, cell-based; details: Homo sapiens;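 also: growth inhibition of KP-N-YN cells, read out with a cell viability assay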
Description: SANGER: Inhibition of human KP-N-YN cell growth in a cell viability assay.

BC-3 = assay: cells; format: functional, cell-based; details: Homo sapiens;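 also: cell viability assay measuring growth inhibition of human BC-3 cells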
Description: SANGER: Inhibition of human BC-3 cell growth in a cell viability assay.

HOP-92 = assay: cells; format: functional, cell-based; details: Homo sapiens;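 also: cell viability readout, with IC50 reflecting inhibition of HOP-92 cell growth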
Description: SANGER: Inhibition of human HOP-92 cell growth in a cell viability assay.

U2OS = assay: cells; format: functional, cell-based, U-2-OS; details: Homo sapiens;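 also: growth inhibition of human U-2-OS cells, determined with a cell viability assay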
Description: SANGER: Inhibition of human U-2-OS cell growth in a cell viability assay.

HSC-2 = assay: cells; format: functional, cell-based; details: Homo sapiens;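 also: growth inhibition of human HSC-2 cells, read out by a cell viability assay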
Description: SANGER: Inhibition of human HSC-2 cell growth in a cell viability assay.

SK-MES-1 = assay: cells; format: functional, cell-based; details: Homo sapiens;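 also: growth inhibition of human SK-MES-1 cells, read out with a cell viability assay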
Description: SANGER: Inhibition of human SK-MES-1 cell growth in a cell viability assay.

SK-MEL-28 = assay: cells; format: functional, cell-based; details: Homo sapiens;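 also: growth inhibition of human SK-MEL-28 cells, read out with a cell viability assay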
Description: SANGER: Inhibition of human SK-MEL-28 cell growth in a cell viability assay.

C32 = assay: cells; format: functional, cell-based; details: Homo sapiens;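 also: cell viability assay, with IC50 reflecting inhibition of C32 cell growth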
Description: SANGER: Inhibition of human C32 cell growth in a cell viability assay.

D-392MG = assay: cells; format: functional, cell-based; details: Homo sapiens
SKG-IIIa = assay: cells; format: functional, cell-based; details: Homo sapiens;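 also: cell growth inhibition, read out with a cell viability assay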
Description: SANGER: Inhibition of human SKG-IIIa cell growth in a cell viability assay.

HCC1599 = assay: cells; format: functional, cell-based; details: Homo sapiens;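 also: growth inhibition of HCC1599 cells, read out in a cell viability assay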
Description: SANGER: Inhibition of human HCC1599 cell growth in a cell viability assay.

KMS-12-PE = assay: cells; format: functional, cell-based; details: Homo sapiens;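 also: growth inhibition of human KMS-12-PE cells, measured with a cell viability assay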
Description: SANGER: Inhibition of human KMS-12-PE cell growth in a cell viability assay.

CESS = assay: SANGER: Inhibition of human CESS cell growth in a cell viability assay.; format: functional, cell-based
HCC1395 = assay: cells; format: functional, cell-based; details: Homo sapiens;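 also: growth inhibition of HCC1395 cells, read out by a cell viability assay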
Description: SANGER: Inhibition of human HCC1395 cell growth in a cell viability assay.

U-118-MG = assay: cells; format: functional, cell-based; details: Homo sapiens
Description: SANGER: Inhibition of human U-118-MG cell growth in a cell viability assay.

A-375 = assay: cells; format: functional, cell-based; details: Homo sapiens;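 also: growth inhibition of A375 cells, read out with a cell viability assay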
Description: SANGER: Inhibition of human A375 cell growth in a cell viability assay.

NCI-H1417 = assay: cells; format: functional, cell-based; details: Homo sapiens;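 also: human NCI-H1417 cells, growth inhibition determined with a cell viability readout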
Description: SANGER: Inhibition of human NCI-H1417 cell growth in a cell viability assay.

YKG-1 = assay: cells; format: functional, cell-based; details: Homo sapiens;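 also: cell growth inhibition, read out with a viability assay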
Description: SANGER: Inhibition of human YKG-1 cell growth in a cell viability assay.

NCCIT = assay: SANGER: Inhibition of human NCCIT cell growth in a cell viability assay.; format: functional, cell-based
NCI-H358 = assay: cells; format: functional, cell-based; details: Homo sapiens;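 also: growth inhibition of NCI-H358 human cells, read out with a cell viability assay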
Description: SANGER: Inhibition of human NCI-H358 cell growth in a cell viability assay.

SCLC-21H = assay: cells; format: functional, cell-based; details: Homo sapiens;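 also: growth inhibition of cultured human SCLC-21H cells, read out with a cell viability assay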
Description: SANGER: Inhibition of human SCLC-21H cell growth in a cell viability assay.

KOSC-2 = assay: cells; format: functional, cell-based; details: Homo sapiens;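 also: growth inhibition of KOSC-2 cells, read out by a cell viability assay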
Description: SANGER: Inhibition of human KOSC-2 cell growth in a cell viability assay.

NCI-H2405 = assay: cells; format: functional, cell-based; details: Homo sapiens;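 also: growth inhibition of the human cell line, read out with a cell viability assay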
Description: SANGER: Inhibition of human NCI-H2405 cell growth in a cell viability assay.

NCI-N87 = assay: cells; format: functional, cell-based; details: Homo sapiens;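 also: growth inhibition of human NCI-N87 cells, read out with a cell viability assay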
Description: SANGER: Inhibition of human NCI-N87 cell growth in a cell viability assay.

KYSE-180 = assay: cells; format: functional, cell-based; details: Homo sapiens
Description: SANGER: Inhibition of human KYSE-180 cell growth in a cell viability assay.

MEL-HO = assay: cells; format: functional, cell-based; details: Homo sapiens
Description: SANGER: Inhibition of human MEL-HO cell growth in a cell viability assay.

CA46 = assay: cells; format: functional, cell-based; details: Homo sapiens
Description: SANGER: Inhibition of human CA46 cell growth in a cell viability assay.

HuCCT-1 = assay: cells; format: functional, cell-based, HuCCT1; details: Homo sapiens
Description: SANGER: Inhibition of human HuCCT1 cell growth in a cell viability assay.

CAKI-1 = assay: cells; format: functional, cell-based; details: Homo sapiens
Description: SANGER: Inhibition of human CAKI-1 cell growth in a cell viability assay.

HLE = assay: cells; format: functional, cell-based; details: Homo sapiens
Description: SANGER: Inhibition of human HLE cell growth in a cell viability assay.

NCI-H1793 = assay: cells; format: functional, cell-based; details: Homo sapiens
Description: SANGER: Inhibition of human NCI-H1793 cell growth in a cell viability assay.

C/C=C(/C)C(=O)O[C@H]1C(C)=C2[C@H]([C@@H]1OC(=O)CCCCCCC)[C@@](C)(OC(C)=O)C[C@H](OC(=O)CCC)[C@@]1(O)[C@H]2OC(=O)[C@@]1(C)O [THAPSIGARGIN]
IC50 (GCT): 5.3 nM
IC50 (BHY): 2.26 nM
IC50 (TALL-1): 21.7 nM
IC50 (SK-MEL3): 6.51 nM
IC50 (NY): < 2 nM
IC50 (SR): > 512 nM
IC50 (CAL-27): < 2 nM
IC50 (MDA-MB-361): 4.73 nM
IC50 (AU565): 1.2 nM
IC50 (NCI-H2170): 14.4 nM
IC50 (MEL-JUSO): < 2 nM
IC50 (PF-382): 25.9 nM
IC50 (AN3-CA): < 2 nM
IC50 (HT-3): 21.7 nM
IC50 (OVCAR-8): 25 nM
IC50 (ECC4): > 512 nM
IC50 (SNU-387): 2.2 nM
IC50 (OPM-2): < 2 nM
IC50 (HSC-4): > 512 nM
IC50 (HCC1954): 24.9 nM
IC50 (NCI-H2171): 12.5 nM
IC50 (SIG-M5): < 2 nM
IC50 (COR-L23): 0.749 nM
IC50 (LoVo): 10.4 nM
IC50 (GMS-10): > 512 nM
IC50 (NUGC-3): < 2 nM
IC50 (MFE-280): 36.6 nM
IC50 (MKN-7): > 512 nM
IC50 (BL-41): < 2 nM
IC50 (KYSE-140): < 2 nM
IC50 (EVSA-T): 122 nM
IC50 (T84): 13.4 nM
IC50 (HEC-1): 40.4 nM
IC50 (KYSE-270): 1.49 nM
IC50 (KP-N-YN): 27 nM
IC50 (BC-3): 4.51 nM
IC50 (HOP-92): 5.26 nM
IC50 (U2OS): 44.7 nM
IC50 (HSC-2): 2.99 nM
IC50 (SK-MES-1): < 2 nM
IC50 (SK-MEL-28): > 512 nM
IC50 (C32): 309 nM
IC50 (D-392MG): > 512 nM
IC50 (SKG-IIIa): > 512 nM
IC50 (HCC1599): 194 nM
IC50 (KMS-12-PE): 297 nM
IC50 (CESS): 35.4 nM
IC50 (HCC1395): 3.15 nM
IC50 (U-118-MG): 31.9 nM
IC50 (A-375): < 2 nM
IC50 (NCI-H1417): > 512 nM
IC50 (YKG-1): 7.72 nM
IC50 (NCCIT): < 2 nM
IC50 (NCI-H358): < 2 nM
IC50 (SCLC-21H): 1.69 nM
IC50 (KOSC-2): 425 nM
IC50 (NCI-H2405): 1.14 nM
IC50 (NCI-N87): > 512 nM
IC50 (KYSE-180): 1.16 nM
IC50 (MEL-HO): 1.9 nM
IC50 (CA46): 2.98 nM
IC50 (HuCCT-1): 4.33 nM
IC50 (CAKI-1): 83.4 nM
IC50 (HLE): 2.75 nM
IC50 (NCI-H1793): > 512 nM
